Data from US11597708B2, “Inhibitors of heat shock factors and uses thereof” (HSF Pharmaceuticals SA, priority 2016, dated 2023).

System: HeLa
Assay: Alamar Blue viability assay
Format: cell-based, human
Conditions: for Viability of HeLa cells (Alamar Blue): 96 hours exposure, attached cells
Procedure: FIG. 5. (A) Viability of HeLa cell cultures mock-exposed (−) or exposed to the indicated concentrations of compounds 001, 058 or 115. (B) Viability of MM.1S cells mock-exposed (−) or exposed to the indicated concentrations of compound 115. Viability was assayed after 96 hours of exposure using an Alamar Blue assay.
FIG. 6. (A) HeLa cell cultures were mock-exposed (−) or exposed to the indicated concentrations of compound 115 for 24 (left panel) or 96 (right panel) hours. Cell viability of total cultures, floating cells and attached cells was assayed using an Alamar Blue assay. (B) HeLa cell cultures were mock-exposed (−) or exposed to the indicated concentrations of compound 115 for 15-96 hours. Trypan Blue dye exclusion was employed to determine numbers of live cells (left panel) and relative levels of necrotic cells (right panel). (C) HeLa cell cultures were mock-exposed (−) or exposed to the indicated concentrations of compound 115 for 6 and 24 h. Shown are relative levels of early apoptotic cells (annexin-positive, 7 aminoactinomycin D-negative). (D) Flow cytometric analysis of DNA of HeLa cell cultures mock-exposed (−) or exposed to the indicated concentrations of compound 115 for 6, 15 and 24 hours. Relative levels of apoptotic cells are indicated.
Cultures of HeLa cells were exposed for 96 hours to different concentrations of IHSF 001, 058 and 115, and viability was assessed using an Alamar Blue assay. It is noted that this standard assay examines attached cells only. This subject will be discussed in more detail below. […] The relative cytotoxicity of the compounds appears to parallel their respective activities as inhibitors of HSF1 function (inhibition of RLuc expression in Z74 cells). We next examined the viability of different human cancer cell lines subsequent to a 96-hour exposure to compound 115 (Table 3). HSF1 was reported as being required for optimal p21 expression and for p53-mediated cell cycle arrest in response to genotoxins. Logan, I. R. et al. (2009) Nucleic Acids Res. 37: 2962-2971. […] Cell lines of different p53 status were included in the experiments in order to find out whether sensitivity to IHSF 115 was related to p53 status. […] No effect of p53 status could be discovered. It is noted that a number of additional HSF inhibitors of the present disclosure were tested and found to effectively reduce the viability of human cancer cells.
Further studies were aimed at finding out whether IHSF-exposed cancer cells were only growth-arrested or were actually killed and, if they were killed, by what mechanism. In one type of experiment, parallel sets of HeLa cell cultures were exposed for either 24 or 96 hours to different concentrations of IHSF 115. The first set was assayed for viability by the Alamar Blue assay without prior removal of floating cells. Attached and floating cells were assayed separately in the second set; floating cells were subsequently re-plated and incubated for 72 hours without compound. […] The viability signal (in whole cultures and, more dramatically, when only attached cells were analyzed) decreased as a function of IHSF concentration. Most floating cells were incapable of re-attaching in the absence of compound (not shown); apparently, these cells had died. More profound effects were observed after 96 hours (right panel) than after 24 hours of exposure (left panel). […] Stained (necrotic) and unstained (live) cells were counted (FIG. 6B). […]

Structure (SMILES)	Viability of HeLa cells (Alamar Blue) (different concentrations)	killing of HeLa cells (Alamar Blue, total, floating and attached cells) (24 or 96 hours exposure, different concentrations)	EC50 (Homo sapiens, HeLa, Cervical, P53 Wt, 96-hour exposure) [µM]
CCOC(=O)/C=C/C(=O)Nc1nccs1 [IHSF 001, (E)-ethyl 4-oxo-4-(thiazol-2-ylamino)but-2-enoate]	decreased in a dose-dependent fashion	–	–
CCOC(=O)/C=C/C(=O)Nc1ncc(-c2cccnc2)s1 [IHSF 058, (E)-3-(5-Pyridm-3-yl-thiazol-2-ylcarbamoyl)-acrylic acid ethyl ester]	decreased in a dose-dependent fashion	–	–
CN(C(=O)/C=C/C1=NCCCO1)c1ncc(-c2cccnc2)s1 [IHSF 115, (E)-3-(5,6-Dihydro-4H-[1,3]oxazin-2-yl)-N-methyl-N-(5-pyridin-3-yl-thiazol-2-yl)-acrylamide]	decreased in a dose-dependent fashion	killed by IHSF 115 in a concentration- and exposure time-dependent fashion	6.2
